Source: patent US20070289889A1, “Biomarkers For The Prediction Of Drug-In Duced Diarrhea” (NOVARTIS AG, priority 2003, published 2007)

What was measured:
white blood cells = test: mRNA expression profiles of white blood cells after treatment, no diarrhoea vs. diarrhoea subjects; format: in vivo, human; settings: treated, grade 3 diarrhoea subjects, average of arrays
Protocol: Samples. Forty-three out of the ninety-one subjects who enrolled in the clinical trial consented to clinical pharmacogenetics analysis. For each subject, two clinical pharmacogenetics blood samples were scheduled: baseline and on Day 2 of Week 1 at hour 24. White blood cell (WBC) pellets were ficoll-hypaque separated from the whole blood by the investigator, frozen at −80° C. mRNA was extracted and profiled on the Affymetrix U95A GeneChip® platform.
mRNA expression profiling analysis. Any array with greater than 20% of genes called present by the Affymetrix MAS5 algorithm was a candidate for the analyses described herein. Affymetrix, “New statistical algorithms for monitoring gene expression on GeneChip® probe arrays.” Affymetrix Technical Notes. (2001). […] Forty-two out of the possible eighty-six arrays met the quality standards needed for analysis.
(§1) Statistical analysis. Fisher's Exact tests were performed to compare the demographics of the clinical pharmacogenetics participants to the overall trial population. An analysis of variance (ANOVA) was used to determine whether mRNA gene expression patterns correlated to either treatment status (baseline vs. treated), to experiencing diarrhoea (no diarrhoea vs. diarrhoea) or to whether specific blood cell type levels correlated to experiencing diarrhoea. All statistical analyses were performed using the SigmaStat 2.03 and SAS 8.02 programs.
(§2) Because there were only three subjects who experienced grade 3 diarrhoea, all fifteen subjects who experienced any grade of diarrhoea were grouped together to strengthen the statistical power of this analysis.
A comparison of the mRNA expression profiles of white blood cells identified eight genes with statistically significant differences between the two groups of subjects 24 hours after epothilone B administration. See, TABLE 3.
Compare, TABLE 8 and TABLE 13.

[1] = Rothermel et al. 2003; cited from earlier work
[2] = Blood cell, haematocrit and haemoglobin levels after epothilone B treatment by diarrhoea status; format: in vivo, human; settings: for Basophils / Eosinophils / Haematocrit / Haemoglobin / Lymphocytes / Monocytes / Neutrophils / Platelets / White Blood Cells: CPG subjects after a single dose, mean ± SEM
Protocol: as §1
Next, the levels of each blood cell type were compared between the two groups of subjects. Because these values were not determined at the blood draw timepoint, values for the second blood draw timepoint after baseline in cycle 1, corresponding to the first blood draw after the first epothilone B treatment (usually 24 hours after the […]) were used for this comparison. […] See, TABLE 4 and FIGS. 1-2.
Because females generally have lower levels of haematocrit and haemoglobin compared to males, a similar analysis was done by sex. As shown in TABLE 5 and FIGS. 1-2, similar trends in haematocrit and haemoglobin levels were identified for each sex. To determine if these associations exist for the entire trial subject population, the haematocrit and haemoglobin levels for all subjects at the second blood draw after baseline in cycle 1 were investigated.

[3] = test system: adult patients with advanced solid tumours; test: Phase I open-label dose-escalation trial, maximum tolerated dose and diarrhoea; format: in vivo, human
Protocol: A group of eleven genes were identified as having statistically significant differences in expression levels when comparing the test samples to their respective baseline samples. […] These genes were identified following a […] dose-finding clinical trial, which was undertaken in which epothilone B was administered weekly to adult patients with advanced solid tumours. A clinical pharmacogenetics (CPG) analysis identified biomarker candidates for the incidence of epothilone B-induced diarrhoea. The analysis also identified genomic-based factors (such as mRNA expression profiles) that are associated with the incidence of epothilone B-induced diarrhoea.
The maximum tolerated dose (MTD) for a compound is determined using methods and materials known in the medical and pharmacological arts, for example through dose-escalation experiments. One or more patients is first treated with a low dose of the compound, typically 10% of the dose anticipated to be therapeutic based on results of in vitro cell culture experiments. The patients are observed for a period of time to determine the occurrence of toxicity. Toxicity is typically evidenced as the observation of one or more of the following symptoms: vomiting, diarrhoea, peripheral neuropathy, ataxia, neutropaenia, or elevation of liver enzymes. If no toxicity is observed, the dose is increased 2-fold, and the patients are again observed for evidence of toxicity. This cycle is repeated until a dose producing evidence of toxicity is reached. The dose immediately preceding the onset of unacceptable toxicity is taken as the […]. A determination of the MTD for epothilone B is provided above.
Clinical trial design. This clinical trial was an open-label, dose-escalation trial using a standard Phase I protocol design (3+3 design) of enrolling three-six patients per cohort to establish the maximum tolerated dose. Peripheral whole blood was collected from patients that consented to clinical pharmacogenetics analysis. Two clinical pharmacogenetics blood samples were scheduled: baseline and on Day 2 of Week 1 at hour 24. The core treatment period consisted of two nine-week cycles of weekly intravenous administrations of epothilone B as tolerated by haematologic and other toxicities. The doses of epothilone B used in this trial were 0.3, 0.5, 0.75, 1.1, 1.85, 2.5, 3.0 and 3.6 mg/m^2.
Clinical pharmacogenetics subjects used for the analysis. Epothilone B was administered to subjects as a single intravenous infusion over five minutes in a maximum volume of 20 ml either every week for up to six weeks followed by a three-week wash-out period, or every week for three weeks followed by one week without treatment. The 2.5 mg/m^2 treatment was considered to be the maximum tolerated dose (MTD). Therefore, twenty clinical pharmacogenetics participants who were in the 2.5, 3.0 and 3.6 mg/m^2 treatment groups and whose arrays met the quality standards were used. The rationale behind this decision was based on the assumption that those genes whose expression was affected by the 2.5 mg/m^2 treatment would be more pronounced in 3.0 and 3.6 mg/m^2 treatment groups.
as §2

[4] = test system: drug-sensitive and multidrug-resistant cells overexpressing P-glycoprotein; settings: cited from earlier work
[5] = CPG Females after a single dose, Diarrhoea (n = 10)
[6] = CPG Females after a single dose, No Diarrhoea (n = 4)
[7] = CPG Males after a single dose, Diarrhoea (n = 5)
[8] = CPG Males after a single dose, No Diarrhoea (n = 1)
[9] = all Females after treatment, Diarrhoea (n = 42)
[10] = all Females after treatment, No Diarrhoea (n = 22)
[11] = all Males after treatment, Diarrhoea (n = 16)
[12] = all Males after treatment, No Diarrhoea (n = 11)
[13] = all subjects after treatment, Diarrhoea any grade (n = 58)
[14] = all subjects after treatment, No Diarrhoea (n = 33)
[15] = CPG subjects, grade 1 diarrhoea
[16] = of twenty CPG subjects, 2.5, 3.0 and 3.6 mg/m^2, irregardless of dose

**Q.** Which results are given for C/C(=C\c1csc(C)n1)[C@@H]1C[C@@H]2O[C@]2(C)CCC[C@H](C)[C@H](O)[C@@H](C)C(=O)C(C)(C)[C@@H](O)CC(=O)O1 [epothilone B, Epothilone B]?
**A.** Signal Value 37285_at (ALAS2) (white blood cells): 428; Signal Value 37405_at (SELENBP1) (white blood cells): 113; Signal Value 39436_at (BNIP3L) (white blood cells): 1489; dose-limiting toxicity (diarrhoea) [1]: dose-limiting toxicity; myelosuppression [1]: no myelosuppression; HCT [2, 5]: 35.63 ± 0.01%; HGB [2, 5]: 12.01 ± 0.35 g/dL; HCT [2, 6]: 30.63 ± 0.20%; HGB [2, 6]: 10.40 ± 0.20 g/dL; HCT [2, 7]: 38.30 ± 1.77%; HGB [2, 7]: 13.18 ± 0.62 g/dL; HCT [2, 8]: 26.30%; HGB [2, 8]: 8.70 g/dL; Basophils ([2]; Diarrhoea (n = 15)): 0.57 ± 0.12%; Eosinophils ([2]; Diarrhoea (n = 15)): 2.74 ± 0.45%; Haematocrit ([2]; Diarrhoea (n = 15)): 36.11 ± 0.91%; Haemoglobin ([2]; Diarrhoea (n = 15)): 12.40 ± 0.33 g/dL; Lymphocytes ([2]; Diarrhoea (n = 15)): 19.92 ± 1.92%; Monocytes ([2]; Diarrhoea (n = 15)): 7.88 ± 0.71%; Neutrophils ([2]; Diarrhoea (n = 15)): 68.81 ± 2.38%; Platelets ([2]; Diarrhoea (n = 15)): 259.20 ± 23.25 THOU/MM^3; White Blood Cells ([2]; Diarrhoea (n = 15)): 5.60 ± 0.44 THOU/MM^3; Basophils ([2]; No Diarrhoea (n = 5)): 0.64 ± 0.22%; Eosinophils ([2]; No Diarrhoea (n = 5)): 3.42 ± 0.73%; Haematocrit ([2]; No Diarrhoea (n = 5)): 29.76 ± 0.87%; Haemoglobin ([2]; No Diarrhoea (n = 5)): 10.06 ± 0.84 g/dL; Lymphocytes ([2]; No Diarrhoea (n = 5)): 14.50 ± 0.74%; Monocytes ([2]; No Diarrhoea (n = 5)): 8.10 ± 0.74%; Neutrophils ([2]; No Diarrhoea (n = 5)): 73.60 ± 2.05%; Platelets ([2]; No Diarrhoea (n = 5)): 334.40 ± 54.80 THOU/MM^3; White Blood Cells ([2]; No Diarrhoea (n = 5)): 5.92 ± 0.87 THOU/MM^3; HCT [2, 9]: 34.34 ± 0.69%; HGB [2, 9]: 11.56 ± 0.25 g/dL; HCT [2, 10]: 33.17 ± 0.94%; HGB [2, 10]: 11.13 ± 0.30 g/dL; HCT [2, 11]: 32.84 ± 1.50%; HGB [2, 11]: 12.46 ± 0.44 g/dL; HCT [2, 12]: 37.48 ± 1.39%; HGB [2, 12]: 11.06 ± 0.46 g/dL; HCT [2, 13]: 35.21 ± 0.67%; HGB [2, 13]: 11.81 ± 0.22 g/dL; HCT [2, 14]: 33.06 ± 0.77%; HGB [2, 14]: 11.11 ± 0.25 g/dL; mean time of experiencing the first episode of diarrhoea after receiving dose ([3]; CPG subjects): 37 days; maximum time to first episode of diarrhoea [3, 15]: 304 days; minimum time to first episode of diarrhoea [3, 15]: 6 days; mean onset of diarrhoea after the scheduled blood draw ([3]; clinical pharmacogenetics (CPG) subjects): 371 ± 18 days; subjects who experienced grade 3 diarrhoea ([3]; of twenty CPG subjects, 2.5, 3.0 and 3.6 mg/m^2): three; subjects who did not experience diarrhoea [3, 16]: five; subjects who experienced any grade of diarrhoea [3, 16]: fifteen; maximum tolerated dose (MTD) ([3]; weekly intravenous infusion over five minutes): 2.5 mg/m^2; cytotoxicity, drug-sensitive vs. multidrug-resistant cells [4]: equally cytotoxic
